Data as given in article PMC12483148 (2025).
Each block holds one compound with its values, some of them ahead of it.

Tests used:
Assay in all cases: BLI, steady state fit
[1] = tested on: SAM-I riboswitch (3'-biotinylated) (RNA, riboswitch) GGCUUAUCAAGAGAGGUGGAGGGACUGGCCCGACGAAACCCGGCAACCAGAAAUGGUGCCAAUUCCUGCAGCGGAAACGUUGAAAGAUGAGCCG; settings: 150 mM Na+, 2 mM Mg2+, 10 mM HEPES pH 7.4, 0.005% Surfactant P20, RNA immobilised
[2] = tested on: FMN riboswitch (3'-biotinylated) (RNA, riboswitch) GAUCUUCAGGGCGGGGUGAAAUUCCCCACCGGCGGUACAGCCCGCGAGCCCAGGAAACUGGGCAGACUUGGUGAAACUCCAAGGCCGACAGUAAAGUCUGGAUGAAAGAAGAUC; settings: 150 mM Na+, 2 mM Mg2+, RNA immobilised
[3] = tested on: TPP riboswitch (3'-biotinylated) (RNA, riboswitch) CAGUACUCGGGGUGCCCUUCUGCGUGAAGGCUGAGAAAUACCCGUAUCACCUGAUCUGGAUAAUGCCAGCGUAGGGAAGUGCUG; settings: 150 mM Na+, 2 mM Mg2+, 10 mM HEPES pH 7.4, 0.005% Surfactant P20, RNA immobilised
[4] = 10 mM HEPES pH 7.4, 0.005% Surfactant P20

KD,stead [1]: 0.17 µM
SMILES: C[S+](CC[C@H](N)C(=O)O)C[C@H]1O[C@@H](n2cnc3c(N)ncnc32)[C@H](O)[C@@H]1O (stereo partly shown)

KD,stead [2, 4]: 0.043 µM
SMILES: Cc1cc2nc3c(=O)[nH]c(=O)nc-3n(C[C@H](O)[C@H](O)[C@H](O)COP(=O)(O)O)c2cc1C

KD,stead ([3]; b29 says 10 μM): 7.0 µM
SMILES: Cc1ncc(C[n+]2csc(CCO)c2C)c(N)n1

KD,stead ([3]; single measurement, low signal-to-noise): 0.016 µM
SMILES: Cc1ncc(C[n+]2csc(CCOP(=O)(O)OP(=O)(O)O)c2C)c(N)n1

KD,stead ([1]; highest concentration 500 μM): 545 µM
SMILES: Nc1ncnc2c1ncn2[C@@H]1O[C@H](CSCC[C@H](N)C(=O)O)[C@@H](O)[C@H]1O

KD,stead ([2]; HBS-P+ pH 7.4, 5% DMSO, apparent): 14 µM
SMILES: O=C(NCc1ccc[nH]1)c1ccc2[nH]cnc2c1

KD,stead [2, 4]: 48 µM
SMILES: O=c1cc(-c2cccs2)nc(C2CCCNC2)[nH]1 (stereo not shown)
